Measured values reported in ChEMBL document CHEMBL1201862, “PubChem BioAssay data set” (2004).
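How tested: cells in 96-well plates exposed to compound for 48 hours at five concentrations. GI50 = concentration required for 50% inhibition of growth.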 Activity calls are given as the source filed them. Rule as the data show it: active = GI50 up to about 1.1 µM and inactive = higher.

Assays:
Experiment in all cases: NCI anticancer screen, dose series, 48 h
[1] = tested on: 786-0
[2] = tested on: A498
[3] = tested on: CAKI-1
[4] = tested on: DU-145
[5] = tested on: HCC 2998
[6] = tested on: HL-60
[7] = tested on: K562
[8] = tested on: KM12
[9] = tested on: LOX IMVI
[10] = tested on: MCF7
[11] = tested on: MDA-N
[12] = tested on: OVCAR-5
[13] = tested on: SF-539
[14] = tested on: SK-MEL-2
[15] = tested on: SR
[16] = tested on: SW-620
[17] = tested on: T47D
[18] = tested on: U-251
[19] = tested on: DMS-273
[20] = tested on: KM-20L2

| SMILES | GI50 [1] | GI50 [2] | GI50 [3] | GI50 [4] | GI50 [5] | GI50 [6] | GI50 [7] | GI50 [8] | GI50 [9] | GI50 [10] | GI50 [11] | GI50 [12] | GI50 [13] | GI50 [14] | GI50 [15] | GI50 [16] | GI50 [17] | GI50 [18] | GI50 [19] | GI50 [20] |
| --- | --- | --- | --- | --- | --- | --- | --- | --- | --- | --- | --- | --- | --- | --- | --- | --- | --- | --- | --- | --- |
| COc1ccc(C(=O)NCCN(C)C)c2nc3ccccc3cc12 | 0.305 µM (active) | 0.114 µM (active) | 0.241 µM (active) | 0.753 µM (active) | 2.04 µM (inactive) | 0.11 µM (active) | 1.44 µM (inactive) | 1.34 µM (inactive) | 0.279 µM (active) | 0.401 µM (active) | 1.46 µM (inactive) | 0.163 µM (active) | 1.31 µM (inactive) | 3.01 µM (inactive) | 0.0551 µM (active) | 0.383 µM (active) | 2.22 µM (inactive) | 0.64 µM (active) | – | – |
| COC(=O)C1=C(OC(=O)/C(=C/c2ccc(Cl)cc2)c2ccc(Cl)cc2)C(C(=O)OC)[C@@]2(O)[C@@H](C(=O)OC)[C@H](C)C[C@@H]1[C@@H]2C(=O)OC (stereo not given in full) | > 100 µM (inactive) | > 100 µM (inactive) | > 100 µM (inactive) | > 100 µM (inactive) | > 73.6 µM (inactive) | > 100 µM (inactive) | 2.33 µM (inactive) | 11 µM (inactive) | > 100 µM (inactive) | 58.6 µM (inactive) | > 100 µM (inactive) | > 21 µM (inactive) | > 100 µM (inactive) | > 92.7 µM (inactive) | > 63.2 µM (inactive) | 78.2 µM (inactive) | > 74 µM (inactive) | 17.8 µM (inactive) | – | – |
| O=C1C(=O)N(C(=O)c2ccc(Cl)c(Cl)c2)c2ccc(Cl)cc21 | > 100 µM (inactive) | 19.4 µM (inactive) | – | – | – | 20.3 µM (inactive) | 59.3 µM (inactive) | > 100 µM (inactive) | 44.9 µM (inactive) | – | – | > 100 µM (inactive) | > 100 µM (inactive) | – | 89.7 µM (inactive) | 92 µM (inactive) | – | > 100 µM (inactive) | > 100 µM (inactive) | – |
| CCOC(=O)N/N=C(/N)c1cccc([N+](=O)[O-])c1 | > 100 µM (inactive) | > 100 µM (inactive) | > 100 µM (inactive) | > 100 µM (inactive) | > 100 µM (inactive) | > 100 µM (inactive) | > 100 µM (inactive) | > 100 µM (inactive) | > 100 µM (inactive) | > 100 µM (inactive) | > 100 µM (inactive) | > 100 µM (inactive) | > 100 µM (inactive) | > 100 µM (inactive) | > 100 µM (inactive) | > 100 µM (inactive) | > 100 µM (inactive) | > 100 µM (inactive) | – | – |
| O=C(CC(=O)Nc1ccccc1)NNC(c1cc(/N=N/c2ccc(Br)cc2)ccc1O)P(O)O (stereo not given) | 0.489 µM (active) | 2.43 µM (inactive) | 3.02 µM (inactive) | 3.48 µM (inactive) | 5.46 µM (inactive) | 0.291 µM (active) | 2.06 µM (inactive) | 1.81 µM (inactive) | 1.71 µM (inactive) | 1.03 µM (active) | 3.83 µM (inactive) | 6.92 µM (inactive) | 2.12 µM (inactive) | > 10 µM (inactive) | 0.494 µM (active) | 1.55 µM (inactive) | 3.31 µM (inactive) | 3.51 µM (inactive) | – | – |
| C=C1CCCC2[C@](C)(CC3=C(O)C(=O)C=C(OC)C3=O)[C@@H](C)CC[C@]12C (stereo not given in full) | 2.64 µM (inactive) | 6.27 µM (inactive) | 3.62 µM (inactive) | – | 7.89 µM (inactive) | 2.4 µM (inactive) | 4.07 µM (inactive) | 2.72 µM (inactive) | 4.97 µM (inactive) | – | – | – | 2.79 µM (inactive) | 2.45 µM (inactive) | – | 3.01 µM (inactive) | – | 4.06 µM (inactive) | – | 4.24 µM (inactive) |
| O=C(Oc1ccccn1)c1cc2cc(CCl)ccc2oc1=O | 19.5 µM (inactive) | 70.6 µM (inactive) | 28.7 µM (inactive) | 42.8 µM (inactive) | 58.9 µM (inactive) | 41.8 µM (inactive) | 32.7 µM (inactive) | 66.8 µM (inactive) | 33.3 µM (inactive) | 38.5 µM (inactive) | 43.5 µM (inactive) | 37.5 µM (inactive) | 50.5 µM (inactive) | 25.9 µM (inactive) | 30.4 µM (inactive) | 30.8 µM (inactive) | 32.7 µM (inactive) | 18.5 µM (inactive) | – | – |
| O=c1nc(N2CCN(c3ccccc3)CC2)ccn1C1OC(CO)C(O)C1O (stereo not given) | 86.3 µM (inactive) | > 100 µM (inactive) | > 100 µM (inactive) | > 100 µM (inactive) | 35.9 µM (inactive) | 39.9 µM (inactive) | 29.4 µM (inactive) | 38.1 µM (inactive) | 94.2 µM (inactive) | 54.6 µM (inactive) | 56.8 µM (inactive) | > 100 µM (inactive) | > 100 µM (inactive) | > 100 µM (inactive) | 28.4 µM (inactive) | 82 µM (inactive) | 22.5 µM (inactive) | 52.2 µM (inactive) | – | – |
| COc1cc(Nc2nc3cc(C(F)(F)F)ccc3nc2C)cc(OC)c1OC | 12.2 µM (inactive) | 3.81 µM (inactive) | 7.11 µM (inactive) | – | 3.61 µM (inactive) | – | 5.52 µM (inactive) | 6.32 µM (inactive) | 3.13 µM (inactive) | – | – | 13.3 µM (inactive) | 12.2 µM (inactive) | 11 µM (inactive) | 6.15 µM (inactive) | 13.3 µM (inactive) | – | 9.95 µM (inactive) | 5.2 µM (inactive) | – |
| COc1ccc2oc(S(=O)(=O)N3CC(CCl)c4ccc([N+](=O)[O-])cc43)cc2c1 (stereo not given) | 0.0959 µM (active) | 0.0746 µM (active) | 0.0388 µM (active) | 0.0883 µM (active) | 0.256 µM (active) | 0.0579 µM (active) | 0.0366 µM (active) | 0.0465 µM (active) | 0.155 µM (active) | 0.0401 µM (active) | 0.0301 µM (active) | 0.832 µM (active) | 0.0607 µM (active) | 0.12 µM (active) | 0.0521 µM (active) | 0.0841 µM (active) | 20.2 µM (inactive) | 0.0955 µM (active) | – | – |
| O=C(Cn1c(=O)oc2ccc(C(=O)c3ccc(F)cc3)cc21)c1ccccc1 | > 100 µM (inactive) | 21 µM (inactive) | > 100 µM (inactive) | > 100 µM (inactive) | > 100 µM (inactive) | > 100 µM (inactive) | > 100 µM (inactive) | > 100 µM (inactive) | > 100 µM (inactive) | > 100 µM (inactive) | > 100 µM (inactive) | > 100 µM (inactive) | > 100 µM (inactive) | > 100 µM (inactive) | > 100 µM (inactive) | > 100 µM (inactive) | 93.5 µM (inactive) | > 100 µM (inactive) | – | – |
| O=c1c(F)cn(Cc2c(Cl)cccc2Cl)c(=O)n1Cc1c(Cl)cccc1Cl | > 31.6 µM (inactive) | > 31.6 µM (inactive) | > 21.5 µM (inactive) | > 100 µM (inactive) | > 31.6 µM (inactive) | 20 µM (inactive) | 26.9 µM (inactive) | > 31.6 µM (inactive) | > 31.6 µM (inactive) | 24.5 µM (inactive) | > 31.6 µM (inactive) | > 31.6 µM (inactive) | > 31.6 µM (inactive) | > 31.6 µM (inactive) | 19.4 µM (inactive) | > 31.6 µM (inactive) | 20.7 µM (inactive) | > 31.6 µM (inactive) | – | – |
| O=C1C=CC(=O)N1c1ccc(I)cc1 | 7.53 µM (inactive) | 20.2 µM (inactive) | 17.5 µM (inactive) | 19.2 µM (inactive) | 19.1 µM (inactive) | 2.84 µM (inactive) | 6.01 µM (inactive) | 21.4 µM (inactive) | 19.9 µM (inactive) | 17.4 µM (inactive) | 15.2 µM (inactive) | 23.6 µM (inactive) | 22.5 µM (inactive) | 20.4 µM (inactive) | 5.77 µM (inactive) | 7.08 µM (inactive) | 25.6 µM (inactive) | 23.6 µM (inactive) | – | – |
| CC(=O)OC(CC1(C)C(C)CCC23COC(=O)C2=CCCC31)c1ccoc1 (stereo not given) | 17.1 µM (inactive) | 45.3 µM (inactive) | – | – | 22.3 µM (inactive) | – | 23.4 µM (inactive) | 26.2 µM (inactive) | 21.3 µM (inactive) | – | – | 28.2 µM (inactive) | 25.9 µM (inactive) | 23.4 µM (inactive) | – | 24.9 µM (inactive) | – | 15.8 µM (inactive) | – | 19.3 µM (inactive) |
| Cc1oc2c(C)c3oc(=O)cc(C)c3cc2c1CN | 39.9 µM (inactive) | 41.5 µM (inactive) | – | – | 28.1 µM (inactive) | 39 µM (inactive) | 37.6 µM (inactive) | 49.5 µM (inactive) | 16.2 µM (inactive) | – | – | 42.1 µM (inactive) | 40.9 µM (inactive) | 46.1 µM (inactive) | – | 19.5 µM (inactive) | – | 23 µM (inactive) | – | 34.4 µM (inactive) |
| COC1(C(C)(C)C)C=C(C(C)(C)C)P(=O)(O)O1 (stereo not given) | > 100 µM (inactive) | > 100 µM (inactive) | > 100 µM (inactive) | > 100 µM (inactive) | 15.7 µM (inactive) | > 100 µM (inactive) | > 100 µM (inactive) | > 100 µM (inactive) | > 100 µM (inactive) | > 100 µM (inactive) | > 100 µM (inactive) | > 100 µM (inactive) | > 100 µM (inactive) | > 100 µM (inactive) | > 100 µM (inactive) | > 100 µM (inactive) | 1.36 µM (inactive) | > 100 µM (inactive) | – | – |
| CCCCNc1nc2ccccc2c2c1ncn2CC(C)C | > 100 µM (inactive) | > 100 µM (inactive) | > 100 µM (inactive) | > 100 µM (inactive) | > 100 µM (inactive) | > 100 µM (inactive) | > 100 µM (inactive) | > 100 µM (inactive) | > 100 µM (inactive) | > 100 µM (inactive) | > 100 µM (inactive) | > 100 µM (inactive) | > 100 µM (inactive) | > 100 µM (inactive) | > 100 µM (inactive) | > 100 µM (inactive) | > 100 µM (inactive) | > 100 µM (inactive) | – | – |
